“And” between values parts separate entries of the source, which are not always exact repeats. Identical values can stand only once.
Conditions: Liquid, Vibrating tube method

CCCC(=O)OCC(COC(=O)CCC)(COC(=O)CCC)COC(=O)CCC [pentaerythritol tetrabutyrate]
Conditions | mass density
283.16 K, 23020 kPa | 1072.1 kg/m3
283.16 K, 23036 kPa | 1072.1 kg/m3
283.16 K, 23052 kPa | 1072.2 kg/m3
283.16 K, 23069 kPa | 1072.1 kg/m3
283.16 K, 23089 kPa | 1072.1 kg/m3
283.16 K, 23106 kPa | 1072.1 kg/m3
283.16 K, 23123 kPa | 1072.2 kg/m3
283.16 K, 23269 kPa | 1072.2 kg/m3
283.16 K, 23431 kPa | 1072.4 kg/m3
283.16 K, 23452 kPa | 1072.4 kg/m3
283.16 K, 23468 kPa | 1072.3 kg/m3
283.16 K, 23490 kPa | 1072.3 kg/m3
283.16 K, 23507 kPa | 1072.4 kg/m3
283.16 K, 23524 kPa | 1072.5 kg/m3
283.16 K, 23541 kPa | 1072.4 kg/m3
283.16 K, 23562 kPa | 1072.4 kg/m3
283.16 K, 23580 kPa | 1072.5 kg/m3
283.16 K, 23601 kPa | 1072.4 kg/m3
283.16 K, 23619 kPa | 1072.4 kg/m3
283.16 K, 23636 kPa | 1072.4 kg/m3
283.16 K, 23657 kPa | 1072.3 kg/m3
283.16 K, 23675 kPa | 1072.4 kg/m3
283.16 K, 23692 kPa | 1072.5 kg/m3
283.16 K, 23710 kPa | 1072.6 kg/m3
283.16 K, 23767 kPa | 1072.5 kg/m3
283.16 K, 23788 kPa | 1072.6 kg/m3
283.16 K, 23806 kPa | 1072.5 kg/m3
283.16 K, 23824 kPa | 1072.5 kg/m3
283.16 K, 23846 kPa | 1072.6 kg/m3
283.16 K, 23864 kPa | 1072.6 kg/m3
283.16 K, 24034 kPa | 1072.7 kg/m3
283.16 K, 24056 kPa | 1072.8 kg/m3
283.16 K, 24075 kPa | 1072.7 kg/m3
283.16 K, 24094 kPa | 1072.7 kg/m3
283.16 K, 24114 kPa | 1072.6 kg/m3
283.16 K, 24135 kPa | 1072.6 kg/m3
283.16 K, 24154 kPa | 1072.8 kg/m3
283.16 K, 24172 kPa | 1072.7 kg/m3
283.16 K, 24191 kPa | 1072.6 kg/m3
283.16 K, 24213 kPa | 1072.7 kg/m3
283.16 K, 24231 kPa | 1072.8 kg/m3
283.16 K, 24254 kPa | 1072.9 kg/m3
283.16 K, 24332 kPa | 1072.7 kg/m3
283.16 K, 24351 kPa | 1072.9 kg/m3
283.16 K, 24370 kPa | 1072.7 kg/m3
283.16 K, 24392 kPa | 1072.7 kg/m3
283.16 K, 24412 kPa | 1072.8 kg/m3
283.16 K, 24431 kPa | 1072.9 kg/m3
283.16 K, 24453 kPa | 1072.9 kg/m3
283.16 K, 24472 kPa | 1072.9 kg/m3
283.16 K, 24494 kPa | 1072.9 kg/m3
283.16 K, 24514 kPa | 1072.9 kg/m3
283.16 K, 24532 kPa | 1072.9 kg/m3
283.16 K, 24551 kPa | 1072.9 kg/m3
283.16 K, 24574 kPa | 1072.9 kg/m3
283.16 K, 24593 kPa | 1072.9 kg/m3
283.16 K, 24613 kPa | 1073 kg/m3
283.16 K, 24636 kPa | 1072.9 kg/m3
283.16 K, 24656 kPa | 1073 kg/m3
283.16 K, 24989 kPa | 1073.1 kg/m3
283.16 K, 25506 kPa | 1073.5 kg/m3
283.16 K, 25531 kPa | 1073.5 kg/m3
283.16 K, 25552 kPa | 1073.5 kg/m3
283.16 K, 25573 kPa | 1073.4 kg/m3
283.16 K, 26529 kPa | 1073.9 kg/m3
283.16 K, 26552 kPa | 1074 kg/m3
283.16 K, 26575 kPa | 1074 kg/m3
283.16 K, 26603 kPa | 1073.9 kg/m3
283.16 K, 26626 kPa | 1074 kg/m3
283.16 K, 26649 kPa | 1074 kg/m3
283.16 K, 26676 kPa | 1073.9 kg/m3
283.16 K, 26698 kPa | 1074 kg/m3
283.16 K, 29351 kPa | 1075.5 kg/m3
283.16 K, 29380 kPa | 1075.4 kg/m3
283.16 K, 29409 kPa | 1075.5 kg/m3
283.16 K, 33957 kPa | 1077.9 kg/m3
283.16 K, 34005 kPa | 1077.8 kg/m3
283.16 K, 34045 kPa | 1078 kg/m3
283.16 K, 34086 kPa | 1077.9 kg/m3
283.16 K, 34136 kPa | 1078 kg/m3
283.16 K, 34523 kPa | 1078 kg/m3
283.16 K, 34524 kPa | 1078.1 kg/m3
283.16 K, 34525 kPa | 1078.1 kg/m3 and 1078 kg/m3
283.16 K, 34526 kPa | 1078.2 kg/m3 and 1078.1 kg/m3
283.16 K, 34527 kPa | 1078.1 kg/m3 and 1078.2 kg/m3
283.16 K, 34528 kPa | 1078.2 kg/m3 and 1078.1 kg/m3
283.16 K, 34529 kPa | 1078.1 kg/m3
283.17 K, 5010.1 kPa | 1062 kg/m3
283.17 K, 5010.7 kPa | 1062.1 kg/m3
283.17 K, 5010.8 kPa | 1062 kg/m3
283.17 K, 5011 kPa | 1062 kg/m3
283.17 K, 5011.2 kPa | 1062 kg/m3 and 1062.1 kg/m3
283.17 K, 5011.5 kPa | 1062.1 kg/m3
283.17 K, 5026.1 kPa | 1062 kg/m3
283.17 K, 5026.2 kPa | 1061.9 kg/m3
283.17 K, 5026.4 kPa | 1062 kg/m3
283.17 K, 5482.5 kPa | 1062.3 kg/m3
283.17 K, 5493.4 kPa | 1062.3 kg/m3
283.17 K, 5500 kPa | 1062.3 kg/m3
283.17 K, 5505.1 kPa | 1062.3 kg/m3
283.17 K, 6286.6 kPa | 1062.7 kg/m3
283.17 K, 6293.2 kPa | 1062.8 kg/m3
283.17 K, 34163 kPa | 1077.8 kg/m3
283.17 K, 34186 kPa | 1077.9 kg/m3
283.17 K, 34206 kPa | 1078 kg/m3
283.17 K, 34224 kPa | 1077.9 kg/m3
283.17 K, 34234 kPa | 1077.9 kg/m3
283.17 K, 34519 kPa | 1078.2 kg/m3 and 1078.1 kg/m3
283.17 K, 34520 kPa | 1078.1 kg/m3
283.17 K, 34521 kPa | 1078.2 kg/m3 and 1078.1 kg/m3
283.17 K, 34522 kPa | 1078 kg/m3 and 1078.1 kg/m3
283.17 K, 34523 kPa | 1078.2 kg/m3
283.17 K, 34524 kPa | 1078.2 kg/m3
303.15 K, 13139 kPa | 1050.5 kg/m3
303.15 K, 20352 kPa | 1054.9 kg/m3
303.15 K, 20397 kPa | 1055 kg/m3
303.15 K, 20435 kPa | 1055.1 kg/m3
303.15 K, 21135 kPa | 1055.3 kg/m3
303.15 K, 21185 kPa | 1055.4 kg/m3
303.15 K, 21226 kPa | 1055.4 kg/m3
303.15 K, 21276 kPa | 1055.5 kg/m3
303.15 K, 21416 kPa | 1055.6 kg/m3
303.15 K, 32925 kPa | 1062.1 kg/m3
303.15 K, 32967 kPa | 1062.1 kg/m3
303.15 K, 33008 kPa | 1062.1 kg/m3
303.15 K, 33049 kPa | 1062.2 kg/m3
303.16 K, 104.1 kPa | 1042.1 kg/m3
303.16 K, 104.5 kPa | 1042.2 kg/m3
303.16 K, 105.2 kPa | 1042.1 kg/m3
303.16 K, 105.7 kPa | 1042.2 kg/m3
303.16 K, 106 kPa | 1042.3 kg/m3
303.16 K, 106.2 kPa | 1042.2 kg/m3
303.16 K, 106.4 kPa | 1042.2 kg/m3
303.16 K, 106.7 kPa | 1042.3 kg/m3
303.16 K, 108.3 kPa | 1042.3 kg/m3
303.16 K, 112.7 kPa | 1042.2 kg/m3
303.16 K, 117.7 kPa | 1042.3 kg/m3
303.16 K, 124.5 kPa | 1042.2 kg/m3
303.16 K, 132.1 kPa | 1042.1 kg/m3
303.16 K, 137.5 kPa | 1042.1 kg/m3
303.16 K, 143.9 kPa | 1042.3 kg/m3
303.16 K, 150.9 kPa | 1042.3 kg/m3
303.16 K, 159.9 kPa | 1042.2 kg/m3
303.16 K, 169 kPa | 1042.2 kg/m3
303.16 K, 180.8 kPa | 1042.3 kg/m3
303.16 K, 192.3 kPa | 1042.2 kg/m3
303.16 K, 204.8 kPa | 1042.2 kg/m3

From the NIST ThermoML archive (doi:10.1021/je060271a)
